# Reference: publication PMC5283093 (European journal of medicinal chemistry, 2016)
# Experiments:
# HIV-1 integrase (IN) = HIV-1 integrase (IN) (Human immunodeficiency virus type 1 group M subtype B, UniProt P12497); experiment: HTRF-based LEDGF/p75 independent 3′-processing assay; type: biochemical
# HEK293T cells = conditions: without viral infection (Fig. 4B)
Structure (SMILES),inhibition of IN 3′processing activity in the absence of LEDGF/p75 (in words) (HIV-1 integrase (IN)),cellular toxicity in words (HEK293T cells)
"O=C(O)c1cc(N(Cc2ccccc2)Cc2ccccc2)ccc1O [Compound 1, 5-(Dibenzylamino)-2-hydroxybenzoic acid]",weak inhibitions,–
"O=C(O)c1cc(N(Cc2ccccc2Cl)Cc2ccccc2Cl)ccc1O [Compound 2, 5-[Bis(2-chlorobenzyl)amino]-2-hydroxybenzoic acid]",weak inhibitions,significant cellular toxicity
"O=C(O)c1cc(N(Cc2ccccc2F)Cc2ccccc2F)ccc1O [Compound 5, 5-[Bis(2-fluorobenzyl)amino]-2-hydroxybenzoic acid]",weak inhibitions,–
"O=C(O)c1cc(N(Cc2cccc(F)c2)Cc2cccc(F)c2)ccc1O [Compound 6, 5-[Bis(3-fluorobenzyl)amino]-2-hydroxybenzoic acid]",weak inhibitions,–
